Tested on: castrated male Sprague-Dawley rats
Experiment: Anabolic and androgenic activity of SARM panel in castrated male rats, sc 1 mg/d for 14 d
Type: in vivo, rat
Settings: 1 mg/d sc 14 d
Method: The in vivo pharmacological activity of each synthetic AR ligand (listed in Table 4, below) was examined in five male Sprague-Dawley rats weighing approximately 200 g. Animals were castrated via a scrotal incision under anesthesia 24 h before drug treatments and received daily sc injections of the compound of interest at a dose rate of 1 mg/d for 14 d. All compounds of interest were freshly dissolved in vehicle containing dimethylsulfoxide (5%, vol/vol) in polyethylene glycol 300 before dose administration. An additional two groups of animals with or without castration received vehicle only and served as castrated or intact control groups, respectively. Animals were killed at the end of the treatment. Plasma samples were collected and stored at −80° C. for future use. The ventral prostate, seminal vesicles, and levator ani muscle were removed, cleared of extraneous tissue, and weighed. All organ weights were normalized to body weight and compared. The weights of prostate and seminal vesicles were used to evaluate androgenic activity, whereas the levator ani muscle weight was used as a measure of anabolic activity. […] The results are graphically depicted in FIGS. 3 and 4.

SMILES | Levator ani agonism | Ventral prostate weight | Levator ani weight versus intact control
C[C@](O)(COc1ccc(F)cc1F)C(=O)Nc1ccc([N+](=O)[O-])c(C(F)(F)F)c1 [C-1] | > 75 % of intact control | < 25 % of intact control | 
C[C@](O)(COc1ccc(F)c(F)c1)C(=O)Nc1ccc([N+](=O)[O-])c(C(F)(F)F)c1 [C-3] |  |  | same as or in excess of intact control
C[C@](O)(COc1ccc(F)c(Cl)c1)C(=O)Nc1ccc([N+](=O)[O-])c(C(F)(F)F)c1 [C-4] | > 75 % of intact control | < 25 % of intact control | 
C[C@](O)(COc1ccc(Cl)c(F)c1)C(=O)Nc1ccc([N+](=O)[O-])c(C(F)(F)F)c1 [C-6] |  |  | same as or in excess of intact control
C[C@](O)(COc1ccc(Cl)cc1F)C(=O)Nc1ccc([N+](=O)[O-])c(C(F)(F)F)c1 [C-8] |  |  | same as or in excess of intact control
C[C@](O)(COc1ccc(Cl)c(Cl)c1)C(=O)Nc1ccc([N+](=O)[O-])c(C(F)(F)F)c1 [C-10] |  |  | same as or in excess of intact control
C[C@](O)(COc1ccc([N+](=O)[O-])c(F)c1)C(=O)Nc1ccc([N+](=O)[O-])c(C(F)(F)F)c1 [C-11] |  |  | same as or in excess of intact control
C[C@](O)(COc1cc(F)c(F)cc1F)C(=O)Nc1ccc([N+](=O)[O-])c(C(F)(F)F)c1 [C-18] |  |  | same as or in excess of intact control
C[C@](O)(COc1cc(Cl)c(Cl)cc1Cl)C(=O)Nc1ccc([N+](=O)[O-])c(C(F)(F)F)c1 [C-22] | > 75 % of intact control | < 25 % of intact control | 
C[C@](O)(COc1c(F)c(F)c(F)c(F)c1F)C(=O)Nc1ccc([N+](=O)[O-])c(C(F)(F)F)c1 [C-23] | > 75 % of intact control | < 25 % of intact control | 
C[C@](O)(COc1ccc(F)cc1)C(=O)Nc1ccc([N+](=O)[O-])c(C(F)(F)F)c1 [S-1] | > 75 % of intact control | < 25 % of intact control | 
